Laboratory results published in article PMC6211260 (Journal of Enzyme Inhibition and Medicinal Chemistry, 2018).
Where two headings read alike, the source gives them in different places.

How the values were obtained:
Assay type in all cases: cell-based
[1] = tested on: K-562 leukaemia cell line; experiment: NCI five-dose testing; conditions: for IC (TGI): read-out: TGI (total growth inhibition concentration); for CC50: K562, read-out: LD50 (lethal dose 50)
Procedure: (§1) Screening against the cancer cell lines was carried out at the National Cancer Institute (NCI, Bethesda, Maryland, USA) applying the standard protocol of the NCI[22].

[2] = tested on: SK-MEL-5 melanoma cell line; experiment: NCI five-dose testing; conditions: for IC (TGI): read-out: TGI (total growth inhibition concentration); for LC50 (lethal concentration 50): SK-MEL-5, read-out: LD50 (lethal dose 50)
Procedure: as §1

[3] = tested on: U251 CNS cancer cell line; experiment: NCI five-dose testing; conditions: for IC50: read-out: IC50; for IC (TGI): read-out: TGI (total growth inhibition concentration); for CC50: U-251, read-out: LD50 (lethal dose 50)
Procedure: as §1

[4] = tested on: HOP-92 non-small cell lung cancer cell line; experiment: NCI five-dose testing; conditions: for IC (TGI): read-out: TGI (total growth inhibition concentration)
Procedure: as §1

[5] = tested on: PC-3 prostate cancer cell line; experiment: NCI five-dose testing; conditions: for IC50: read-out: IC50; for IC (TGI): read-out: TGI (total growth inhibition concentration); for LC50 (lethal concentration 50): PC-3, read-out: LD50 (lethal dose 50)
Procedure: as §1

[6] = tested on: HT-29 colon cancer cell line; experiment: NCI five-dose testing; conditions: for IC50: read-out: IC50; for IC (TGI): read-out: TGI (total growth inhibition concentration); for CC50: HT-29, read-out: LD50 (lethal dose 50)
Procedure: as §1

[7] = tested on: OVCAR-4 ovarian cancer cell line; experiment: NCI five-dose testing; conditions: for IC (TGI): read-out: TGI (total growth inhibition concentration); for LC50 (lethal concentration 50): OVCAR-4, read-out: LD50 (lethal dose 50)
Procedure: as §1

[8] = tested on: A498 renal cancer cell line; experiment: NCI five-dose testing; conditions: for IC (TGI): read-out: TGI (total growth inhibition concentration); for LC50 (lethal concentration 50%): A498, read-out: LD50 (lethal dose 50)
Procedure: as §1

[9] = tested on: MDA-MB-468 breast cancer cell line; experiment: NCI five-dose testing; conditions: for IC (TGI): read-out: TGI (total growth inhibition concentration); for CC50: MDA-MB-468, read-out: LD50 (lethal dose 50)
Procedure: as §1

renal cancer cell lines = experiment: NCI five-dose testing, subpanel mean; conditions: subpanel VII: renal cancer
Procedure: as §1

breast cancer cell lines = experiment: NCI five-dose testing, subpanel mean; conditions: subpanel IX: breast cancer
Procedure: as §1

melanoma cell lines = experiment: NCI five-dose testing, subpanel mean; conditions: subpanel V: melanoma
Procedure: as §1

[10] = tested on: non-small cell lung cancer cell lines; experiment: NCI five-dose testing, subpanel mean; conditions: subpanel II: non-small cell lung cancer
Procedure: as §1

[11] = tested on: ovarian cancer cell lines; experiment: NCI five-dose testing, subpanel mean; conditions: subpanel VI: ovarian cancer
Procedure: as §1

[12] = tested on: prostate cancer cell lines; experiment: NCI five-dose testing, subpanel mean; conditions: subpanel VIII: prostate cancer
Procedure: as §1

Leukaemia cell lines = experiment: NCI five-dose testing, subpanel mean; conditions: subpanel I: Leukaemia
Procedure: as §1

colon cancer cell lines = experiment: NCI five-dose testing, subpanel mean; conditions: subpanel III: colon cancer
Procedure: as §1

CNS cancer cell lines = experiment: NCI five-dose testing, subpanel mean; conditions: subpanel IV: CNS cancer
Procedure: as §1

[13] = Homo sapiens, HOP-92, read-out: LD50 (lethal dose 50)

SMILES: O=S(=O)(NCCNc1cc(-c2cn(-c3ccccc3)nc2-c2cccc(O)c2)ccn1)c1ccc(F)cc1 [Compound 1m, 4-Fluoro-N-(2-((4-(3-(3-hydroxyphenyl)-1-phenyl-1H-pyrazol-4-yl)pyridin-2-yl)amino)ethyl) benzenesulfonamide]
- IC50 ([1]; K-562): 1.98 µM
- LD50 (lethal dose 50) ([1]; K-562): >100 µM
- IC (TGI) ([1]; K-562): >100 µM
- IC50 ([2]; SK-MEL-5): 1.73 µM
- LD50 (lethal dose 50) ([2]; SK-MEL-5): 6.0 µM
- IC (TGI) ([2]; SK-MEL-5): 3.2 µM
- LD50 (lethal dose 50) ([3]; U251): 50.9 µM
- IC50 ([3]; U251): 2.62 µM
- IC (TGI) ([3]; U251): 6.8 µM
- IC50 ([4]; HOP-92): 2.03 µM
- LD50 (lethal dose 50) ([4]; HOP-92): 68.8 µM
- IC (TGI) ([4]; HOP-92): 8.4 µM
- LD50 (lethal dose 50) ([5]; PC-3): >100 µM
- IC50 ([5]; PC-3): 2.29 µM
- IC (TGI) ([5]; PC-3): 10.2 µM
- LD50 (lethal dose 50) ([6]; HT-29): 54.3 µM
- IC50 ([6]; HT-29): 1.99 µM
- IC (TGI) ([6]; HT-29): 47.9 µM
- IC50 ([7]; OVCAR-4): 3.05 µM
- LD50 (lethal dose 50) ([7]; OVCAR-4): >100 µM
- IC (TGI) ([7]; OVCAR-4): >100 µM
- IC50 ([8]; A498): 2.32 µM
- LD50 (lethal dose 50) ([8]; A498): 45.7 µM
- IC (TGI) ([8]; A498): 9.2 µM
- IC50 ([9]; MDA-MB-468): 1.88 µM
- LD50 (lethal dose 50) ([9]; MDA-MB-468): >100 µM
- IC (TGI) ([9]; MDA-MB-468): 5.3 µM
- IC50 (renal cancer cell lines): 2.88 µM
- IC50 (breast cancer cell lines): 2.16 µM
- IC50 (melanoma cell lines): 2.06 µM
- IC50 [10]: 2.65 µM
- IC50 [11]: 2.68 µM
- IC50 [12]: 2.88 µM
- IC50 (Leukaemia cell lines): 2.29 µM
- IC50 (colon cancer cell lines): 2.34 µM
- IC50 (CNS cancer cell lines): 2.51 µM

SMILES: O=S(=O)(NCCCNc1cc(-c2cn(-c3ccccc3)nc2-c2cccc(O)c2)ccn1)c1ccc(C(F)(F)F)cc1 [Compound 2o, N-(3-((4-(3-(3-Hydroxyphenyl)-1-phenyl-1H-pyrazol-4-yl)pyridin-2-yl)amino)propyl)-4-(trifluoromethyl)benzenesulfonamide]
- CC50 ([1]; Homo sapiens): > 100 µM
- IC50 ([1]; Homo sapiens, K562, K-562): 0.61 µM
- IC (TGI) ([1]; Homo sapiens, K562, K-562): 5.3 µM
- IC50 ([1]; K-562): 0.617 µM
- IC50 ([2]; Homo sapiens, SK-MEL-5): 1.57 µM
- LC50 (lethal concentration 50) ([2]; Homo sapiens): 5.6 µM
- IC (TGI) ([2]; Homo sapiens, SK-MEL-5): 2.9 µM
- CC50 ([3]; Homo sapiens): 8.1 µM
- IC50 ([3]; Homo sapiens, U-251, U251): 1.78 µM
- IC (TGI) ([3]; Homo sapiens, U-251, U251): 3.2 µM
- IC50 ([4]; Homo sapiens, HOP-92): 1.41 µM
- IC (TGI) ([4]; Homo sapiens, HOP-92, HOP-92): 3.6 µM
- LD50 (lethal dose 50) [4, 13]: 9.7 µM
- LC50 (lethal concentration 50) ([5]; Homo sapiens): 18.9 µM
- IC50 ([5]; Homo sapiens, PC-3): 2.87 µM
- IC (TGI) ([5]; Homo sapiens, PC-3): 4.5 µM
- CC50 ([6]; Homo sapiens): 8.1 µM
- IC50 ([6]; Homo sapiens, HT-29): 0.5 µM
- IC (TGI) ([6]; Homo sapiens, HT-29): 3.1 µM
- IC50 ([7]; Homo sapiens, OVCAR-4): 3.06 µM
- LC50 (lethal concentration 50) ([7]; Homo sapiens): > 100 µM
- IC (TGI) ([7]; Homo sapiens, OVCAR-4): 5.1 µM
- IC50 ([8]; Homo sapiens, A498): 1.09 µM
- LC50 (lethal concentration 50%) ([8]; Homo sapiens): 6.3 µM
- IC (TGI) ([8]; Homo sapiens, A498): 2.6 µM
- IC50 ([9]; Homo sapiens, MDA-MB-468): 1.85 µM
- CC50 ([9]; Homo sapiens): > 100 µM
- IC (TGI) ([9]; Homo sapiens, MDA-MB-468): 5.5 µM
- IC50 (renal cancer cell lines): 2.03 µM
- IC50 (breast cancer cell lines): 1.87 µM
- IC50 (melanoma cell lines): 1.72 µM
- IC50 [10]: 2.12 µM
- IC50 [11]: 2.32 µM
- IC50 [12]: 2.79 µM
- IC50 (Leukaemia cell lines): 1.9 µM
- IC50 (colon cancer cell lines): 1.64 µM
- IC50 (CNS cancer cell lines): 1.71 µM

SMILES: O=S(=O)(NCCCNc1cc(-c2cn(-c3ccccc3)nc2-c2cccc(O)c2)ccn1)c1cccc2ccccc12 [Compound 2q, N-(3-((4-(3-(3-Hydroxyphenyl)-1-phenyl-1H-pyrazol-4-yl)pyridin-2-yl)amino)propyl) naphthalene-1-sulfonamide]
- CC50 ([1]; Homo sapiens): > 100 µM
- IC50 ([1]; Homo sapiens, K562, K-562): 0.92 µM
- IC (TGI) ([1]; Homo sapiens, K562, K-562): 4.4 µM
- IC50 ([2]; Homo sapiens, SK-MEL-5): 1.53 µM
- LC50 (lethal concentration 50) ([2]; Homo sapiens): 7.4 µM
- IC (TGI) ([2]; Homo sapiens, SK-MEL-5): 3.4 µM
- CC50 ([3]; Homo sapiens): 41.3 µM
- IC50 ([3]; Homo sapiens, U-251, U251): 1.28 µM
- IC (TGI) ([3]; Homo sapiens, U-251, U251): 13.2 µM
- IC50 ([4]; Homo sapiens, HOP-92): 1.56 µM
- IC (TGI) ([4]; Homo sapiens, HOP-92, HOP-92): 7.2 µM
- LD50 (lethal dose 50) [4, 13]: > 100 µM
- LC50 (lethal concentration 50) ([5]; Homo sapiens): > 100 µM
- IC50 ([5]; Homo sapiens, PC-3): 1.93 µM
- IC (TGI) ([5]; Homo sapiens, PC-3): 44.9 µM
- CC50 ([6]; Homo sapiens): 4.5 µM
- IC50 ([6]; Homo sapiens, HT-29): 1.23 µM
- IC (TGI) ([6]; Homo sapiens, HT-29): 1.7 µM
- IC50 ([7]; Homo sapiens, OVCAR-4): 1.92 µM
- LC50 (lethal concentration 50) ([7]; Homo sapiens): > 100 µM
- IC (TGI) ([7]; Homo sapiens, OVCAR-4): > 100 µM
- IC50 ([8]; Homo sapiens, A498): 1.1 µM
- LC50 (lethal concentration 50%) ([8]; Homo sapiens): > 100 µM
- IC (TGI) ([8]; Homo sapiens, A498): 6.6 µM
- IC50 ([9]; Homo sapiens, MDA-MB-468): 1.8 µM
- CC50 ([9]; Homo sapiens): > 100 µM
- IC (TGI) ([9]; Homo sapiens, MDA-MB-468): 6 µM
- IC50 (renal cancer cell lines): 2.99 µM
- IC50 (breast cancer cell lines): 1.95 µM
- IC50 (melanoma cell lines): 2.27 µM
- IC50 [10]: 3.05 µM
- IC50 [11]: 5.28 µM
- IC50 [12]: 3.44 µM
- IC50 (Leukaemia cell lines): 1.96 µM
- IC50 (colon cancer cell lines): 2.62 µM
- IC50 (CNS cancer cell lines): 2.33 µM
